In brackets after ≈: the same amount, converted by molar mass. Where two headings read alike, the source gives them in different places.
Tests used:
[1] = Human microsomal stability; format: in vitro ADME; settings: human microsomes; for microsomal stability percent (percentage remanent): sampling time 60 min; for microsomal CLint at 1 h / half-life at 1 h: human, pH 7.4; for microsomal CLint at 1 h: read-out: microsomal stability Clint (intrinsic clearance); for half-life at 1 h: read-out: microsomal stability t1/2
Protocol: The human microsomal stability of selected compounds was evaluated by following a previously described method.[31] The human microsomes employed were purchased from Tebu-Xenotech. The compound was incubated with the microsomes at 37 °C in a 50 mM phosphate buffer (pH = 7.4) containing 3 mM MgCl2, 1 mM NADP, 10 mM glucose-6-phosphate, and 1 U/mL glucose-6-phosphate-dehydrogenase. Samples (75 μL) were taken from each well at 0, 10, 20, 40, and 60 min and transferred to a plate containing 4 °C 75 μL acetonitrile and 30 μL of 0.5% formic acid in water was added for improving the chromatographic conditions. The plate was centrifuged (46,000 g, 30 min), and supernatants were taken and analyzed in a UPLC-MS/MS (Xevo TQD, Waters) by employing a BEH C18 column and an isocratic gradient of 0.1% formic acid in water:0.1% formic acid acetonitrile (60:40). The metabolic stability of the compounds was calculated from the logarithm of the remaining compounds at each of the time point studied.

hA2BAR = target: T1, hA2BAR (Homo sapiens, UniProt P29275); assay: Radioligand binding competition, [3H]DPCPX, membranes from HEK-293-A2B cells; parameters: Exp. dG: unit not given here; settings: for Ki: read-out: Ki hA2B; for Exp. dG: experimental binding free energy, Supplementary Table S3, unit not given (errors in kcal/mol)
T1 construct: host or cells: HEK-293 (HEK-293-A2B) cell membranes
T1 sequence (P29275 1-332): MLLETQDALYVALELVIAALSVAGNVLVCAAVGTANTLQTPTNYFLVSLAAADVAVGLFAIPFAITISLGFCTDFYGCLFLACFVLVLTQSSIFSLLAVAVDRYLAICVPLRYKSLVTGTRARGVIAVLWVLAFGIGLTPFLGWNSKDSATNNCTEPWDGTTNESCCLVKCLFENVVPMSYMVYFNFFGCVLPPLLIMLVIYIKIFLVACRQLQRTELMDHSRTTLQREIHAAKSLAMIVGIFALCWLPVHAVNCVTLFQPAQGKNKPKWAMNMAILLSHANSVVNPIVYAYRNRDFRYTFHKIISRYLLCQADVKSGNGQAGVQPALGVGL
How it was run: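 Racemates, plus selected enantiomers after chiral resolution, were tested at 25 °C, with a 60 min incubation for one subtype and 30 min for others. Non-specific binding was defined with 10 μM or 100 μM R-PIA. Bound radioactivity was counted after washing and filtration.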

CYP3A4 = target: T2, CYP3A4 (Homo sapiens, UniProt P08684); assay: CYP3A4 inhibition (fluorescence, substrates DBF or 7-BFC); format: biochemical; settings: for CYP3A4 % inh. at 10 μM, 7-BFC: substrate 7-benzyloxy-4-trifluoromethyl-coumarin; for IC50: IC50 obtained by extrapolation with analysis software, read-out: CYP3A4 IC50, DBF
T2 construct: host or cells: insect cell microsomes
Protocol: To identify potential metabolic liabilities within the series here documented, the selected A2BAR antagonists were tested in vitro for CYP3A4 inhibitory activity.
The inhibitory activity of selected compounds was evaluated by following a previously described method.[31] […] The plate was then pre-incubated at 37 °C for 5 min and the reaction initiated by the addition of a pre-warmed enzyme/substrate (E/S) mix. The E/S mix contained buffer (KH2PO4), c-DNA-expressed P450 in insect cell microsomes, substrate (DBF: dibenzylfluorescein or 7-BFC: 7-benzyloxy-4-trifluoromethyl-coumarin) and other components to give the final assay concentrations in a reaction volume of 200 μL. Reactions were terminated after various times (a specific time for each cytochrome) by addition of STOP solution (ACN/Tris–HCl 0.5 M 80:20, and NaOH 2 N for CYP3A4). Fluorescence per well was measured using a fluorescence plate reader (Tecan Infinite M1000 PRO), and percentage of inhibition was calculated. In silico predictions were performed using free web-based models (FAME 3, SmartCYP, and Xenosite).[62]−[64]

[2] = Solubility determination (nephelometry); format: physicochemical; settings: 1:99 DMSO/PSB buffer, PBS pH 7, 37 °C
Protocol: The solubility of selected compounds was evaluated by following a previously described method.[31] A 10 mM stock solution of the compound was serially diluted in 100% DMSO, and 2.5 μL of this solution was added to a 384-well UV-transparent plate (Greiner) containing 47.5 μL of PBS (pH = 7). The plate was incubated at 37 °C for 4 h, and the light scattering was measured in a NEPHELOstar Plus reader (BMG LABTECH). The data was fitted to a segmented linear regression for measuring the compound solubility.

[3] = displacement of specific [3H]DPCPX binding in human HEK-293 cells, n = 3

T2 sequence (P08684 whole entry): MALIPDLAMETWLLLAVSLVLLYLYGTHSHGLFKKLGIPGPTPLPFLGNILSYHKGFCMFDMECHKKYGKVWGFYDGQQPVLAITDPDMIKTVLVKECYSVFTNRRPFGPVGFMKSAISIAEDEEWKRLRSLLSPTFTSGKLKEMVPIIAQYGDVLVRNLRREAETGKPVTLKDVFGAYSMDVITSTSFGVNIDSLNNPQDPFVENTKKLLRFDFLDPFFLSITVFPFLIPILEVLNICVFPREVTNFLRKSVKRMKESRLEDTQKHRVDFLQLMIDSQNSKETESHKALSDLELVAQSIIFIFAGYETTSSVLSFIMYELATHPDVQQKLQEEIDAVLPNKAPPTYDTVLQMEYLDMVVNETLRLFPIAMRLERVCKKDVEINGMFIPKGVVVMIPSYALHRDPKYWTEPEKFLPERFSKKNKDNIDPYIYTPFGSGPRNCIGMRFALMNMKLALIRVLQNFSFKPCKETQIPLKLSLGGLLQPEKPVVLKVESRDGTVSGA

microsomal stability percent (percentage remanent) [1] | microsomal CLint at 1 h [1] | half-life at 1 h [1] | Ki (hA2BAR; [3]) | Exp. dG (hA2BAR) | Ki (hA2BAR) | CYP3A4 % inh. at 10 μM, 7-BFC (CYP3A4; 10 μM) | CYP3A4 % inh. at 10 μM, DBF (CYP3A4; 10 μM, substrate dibenzylfluorescein) | solubility at 4 h [2] | IC50 (CYP3A4; substrate dibenzylfluorescein) | SMILES
19.83% | 20.1 µL/min/mg | 27.4 min | 3.05 ± 0.7 nM | -11.61 | < 10 nM | 63% | 40% | 47.5 µM (≈ 16.9 µg/mL) | – | CC1=C(C(=O)OC(C)C)C(c2ccco2)n2c(nc3cc(F)ccc32)N1 (centres unmarked) [16b]
22.75% | 18.6 µL/min/mg | 28.1 min | 5.03 ± 0.3 nM | -11.31 | < 10 nM | 54% | – | 23.7 µM (≈ 8.81 µg/mL) | 3680 ± 470 nM | CC1=C(C(=O)OC(C)C)C(c2ccco2)n2c(nc3cc(Cl)ccc32)N1 (centres unmarked) [16j]
32.13% | 14.2 µL/min/mg | 36.8 min | 5.23 ± 0.4 nM | – | < 10 nM | 52% | – | 70.7 µM (≈ 29.4 µg/mL) | 2260 ± 300 nM | CC1=C(C(=O)OC(C)C)C(c2ccco2)n2c(nc3cc(Br)ccc32)N1 (centres unmarked) [16r]

From publication PMC9841532, “Exploring the Effect of Halogenation in a Series of Potent and Selective A2B Adenosine Receptor Antagonists” (Journal of Medicinal Chemistry, 2022)
